These are literature values, as cited in patent publication US12667577B2, “Pharmaceutical composition, and aprepitant injection and freeze-dried powder injection” (WISDOM PHARMACEUTICAL CO., LTD, priority 2022, dated 2026).

Molecules are shown by their SMILES. Converted amounts (≈) assume the structure as drawn.

The conditions of series [1]: clinical data.
For series [2], the target named is human substance P neurokinin-1 (NK1) receptor (Homo sapiens, UniProt P25103).
Series [3] addresses T1, 5-hydroxytryptamine receptor 3 (5-HT3) (Homo sapiens, UniProt P46098).
T1 sequence (P46098 24-478): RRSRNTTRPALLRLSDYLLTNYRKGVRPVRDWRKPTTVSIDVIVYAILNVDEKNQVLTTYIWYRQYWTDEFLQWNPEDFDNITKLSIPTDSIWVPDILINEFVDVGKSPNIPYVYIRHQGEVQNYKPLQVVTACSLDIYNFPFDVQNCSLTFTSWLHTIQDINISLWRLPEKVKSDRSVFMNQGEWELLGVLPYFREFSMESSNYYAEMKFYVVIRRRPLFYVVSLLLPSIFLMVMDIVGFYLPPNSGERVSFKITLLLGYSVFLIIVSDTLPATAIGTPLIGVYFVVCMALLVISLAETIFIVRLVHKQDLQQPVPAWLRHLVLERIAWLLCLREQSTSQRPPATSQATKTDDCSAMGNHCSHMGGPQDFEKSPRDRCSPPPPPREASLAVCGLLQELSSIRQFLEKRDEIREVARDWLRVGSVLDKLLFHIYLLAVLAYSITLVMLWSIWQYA

Another series concerns the target T2, glucocorticoid receptor (Homo sapiens, UniProt P04150).
T2 sequence (P04150 1-777): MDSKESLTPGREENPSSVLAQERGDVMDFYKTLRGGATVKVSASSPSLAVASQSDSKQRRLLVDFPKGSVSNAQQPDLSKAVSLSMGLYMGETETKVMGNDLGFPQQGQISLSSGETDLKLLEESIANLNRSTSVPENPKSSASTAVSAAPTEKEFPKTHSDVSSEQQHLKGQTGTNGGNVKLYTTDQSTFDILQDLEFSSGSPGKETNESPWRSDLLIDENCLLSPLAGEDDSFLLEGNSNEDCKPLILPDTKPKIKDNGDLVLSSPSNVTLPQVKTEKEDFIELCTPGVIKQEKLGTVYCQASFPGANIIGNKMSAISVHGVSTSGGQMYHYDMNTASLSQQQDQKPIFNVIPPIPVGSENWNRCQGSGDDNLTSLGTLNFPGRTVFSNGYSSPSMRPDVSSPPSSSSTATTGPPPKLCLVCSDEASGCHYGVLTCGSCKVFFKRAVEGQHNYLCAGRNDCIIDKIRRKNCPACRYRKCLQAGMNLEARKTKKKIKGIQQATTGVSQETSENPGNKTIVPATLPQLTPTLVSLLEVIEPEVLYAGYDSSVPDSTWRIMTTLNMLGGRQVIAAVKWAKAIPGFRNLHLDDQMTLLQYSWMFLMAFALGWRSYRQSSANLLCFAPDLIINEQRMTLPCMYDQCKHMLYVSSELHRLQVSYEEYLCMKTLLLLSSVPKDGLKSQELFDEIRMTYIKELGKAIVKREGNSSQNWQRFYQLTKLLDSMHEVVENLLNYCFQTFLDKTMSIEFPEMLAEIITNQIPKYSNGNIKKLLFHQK

Sequence of human substance P neurokinin-1 (NK1) receptor (P25103 whole entry): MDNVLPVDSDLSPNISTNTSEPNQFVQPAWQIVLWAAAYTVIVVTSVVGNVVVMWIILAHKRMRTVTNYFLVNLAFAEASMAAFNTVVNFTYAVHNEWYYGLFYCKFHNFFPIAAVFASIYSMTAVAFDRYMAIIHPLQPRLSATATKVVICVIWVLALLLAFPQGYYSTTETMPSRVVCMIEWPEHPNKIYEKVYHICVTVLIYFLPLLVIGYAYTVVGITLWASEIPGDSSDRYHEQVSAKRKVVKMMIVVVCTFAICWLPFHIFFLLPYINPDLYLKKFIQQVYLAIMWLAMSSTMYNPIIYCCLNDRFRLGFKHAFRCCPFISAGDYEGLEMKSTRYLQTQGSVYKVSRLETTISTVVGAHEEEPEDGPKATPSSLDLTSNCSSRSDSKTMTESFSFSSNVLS

Consider `C[C@@H](O[C@H]1OCCN(Cc2n[nH]c(=O)[nH]2)[C@H]1c1ccc(F)cc1)c1cc(C(F)(F)F)cc(C(F)(F)F)c1` [aprepitant, Aprepitant], for which the classification in biopharmaceutics entry (low dissolution and low permeability) is “Class IV”. Also, for the setting “room temperature”, the “solubility in ethanol, isopropyl acetate, and acetonitrile” value is recorded as “slightly soluble”; the solubility in water was 0.55 µg/mL (≈ 1.03 µM). Also, the “adverse effect rate at injection sites” value in series [1] is recorded as 0.5%. For the same compound, the “affinity to NK1 receptor” value in series [2] was “high-affinity”. Moreover, the “affinity to 5-HT3” value in series [3] is listed as “low or no affinity”. Moreover, the “affinity to dopamine receptor” value with dopamine receptor is listed as “low or no affinity”. In addition, the “affinity to glucocorticoid receptor” value at glucocorticoid receptor was “low or no affinity”.
